Measured values published in patent US9974301B2, “Fungicidal composition for controlling phytopathogenic diseases, comprising a mixture of the volatile compounds ethanol, 3-methylbutanol, isobutyl acetate, isoamyl acetate and alpha-bisabolol; and the use thereof for inhibiting the growth of the pathogenic fungus botrytis cinerea” (UNIVERSIDAD DE LA FRONTERA, priority 2013, dated 2018).

Tested on: Botrytis cinerea
Assay: Inhibition of growth of Botrytis cinerea by artificial VOC mixture and pure compounds, bi compartmentalized Petri dishes (vapour exposure)
Assay type: cell-based
Settings: pure compounds at their relative proportion of 0.70 μl/mL mixture (ethanol 0.11, isobutyl acetate 0.14, isoamyl acetate 0.13, α-bisabolol 0.10 μl/mL head space); after four days
Description: For this, bi compartmentalized Petri dishes (94×16 mm) (Greiner, Germany) coated with culture medium were used, leaving a head space of 60 mL. One compartment was inoculated with mycelium (3 mm radius disk) of the saprophytic fungus (S. commune). The other compartment was inoculated with fresh mycelium of B. cinerea. In this bioassay there was no physical contact between the two fungi. The control treatment consisted of placing the mycelium of B. cinerea in only one of the compartments. All experimental units (Petri dishes) were covered and sealed with Parafilm M®, and incubated at 25° C. in the dark until the growth of any fungi (treatment and control) reached the edge of the central wall of the Petri dish. The mycelial growth was measured using a magnifying glass (Japan Optical), and data were expressed as percent of inhibition relative to control. Each treatment was repeated 10 times.
The inhibitory power of pure compounds and of a mixture based on their percent ratio were assessed. The methodology was similar to that detailed above to assess the antifungal activity of saprophytic fungus. The minimum inhibitory concentration (MIC) and lethal dose 50% (LD50) were calculated by interpolation according to the polynomial equation (Y=−194.565812×2+318.001954×−25.561441; r2=0.982) (See FIG. 2).
6 formulations were tested at laboratory level: […]
Formulation 2: 0.11 μl ethanol per 1 mL of head space volume (airspace).
Formulation 3: 0.14 μl of isobutyl acetate per 1 mL of head space volume (airspace).
Formulation 4: 0.13 μl of isoamyl acetate per 1 mL of head space volume (airspace).
Formulation 5: 0.10 μl of α-bisabolol per 1 mL of head space volume (airspace).
The effect of each formulation for inhibiting the growth of B. cinerea was tested using bi compartmentalized dishes, according to the above methodology.

Compound | percent of inhibition of Botrytis cinerea growth
CC(=O)OCCC(C)C [isoamyl acetate] | 77%
CC(=O)OCC(C)C [isobutyl acetate] | 47%
α-bisabolol | did not inhibit
